According to publication PMC6499371 (Chemical communications (Cambridge, England), 2019):

Target: T1, porcine trehalase (Sus scrofa, UniProt I3LIR5)
T1 sequence (I3LIR5 24-556): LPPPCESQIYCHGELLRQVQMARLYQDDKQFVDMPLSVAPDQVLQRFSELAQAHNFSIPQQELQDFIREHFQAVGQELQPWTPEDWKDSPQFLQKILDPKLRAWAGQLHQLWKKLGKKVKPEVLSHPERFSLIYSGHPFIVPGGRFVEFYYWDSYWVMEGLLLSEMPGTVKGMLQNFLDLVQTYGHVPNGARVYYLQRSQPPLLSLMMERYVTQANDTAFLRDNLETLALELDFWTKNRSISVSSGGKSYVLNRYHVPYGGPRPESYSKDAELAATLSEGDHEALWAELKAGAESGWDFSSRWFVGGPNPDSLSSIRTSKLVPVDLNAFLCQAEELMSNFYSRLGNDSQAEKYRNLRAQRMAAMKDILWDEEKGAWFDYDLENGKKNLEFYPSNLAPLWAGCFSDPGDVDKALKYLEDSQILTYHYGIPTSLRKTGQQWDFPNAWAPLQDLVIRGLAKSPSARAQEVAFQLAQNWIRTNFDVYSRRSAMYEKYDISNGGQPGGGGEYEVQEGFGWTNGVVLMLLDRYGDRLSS
Assay: UV spectrophotometric coupled assay of trehalose hydrolysis
Format: biochemical

OC[C@H]1O[C@H](O[C@H]2O[C@H](CO)[C@@H](O)[C@H](O)[C@H]2O)[C@@H](O)[C@@H](O)[C@@H]1O [compound 2, mannotrehalose]
IC50: 1130 µM
